Test results from ChEMBL document CHEMBL1135178, “Photo-oxygenation of geraniol: synthesis of a novel series of hydroxy-functionalized anti-malarial 1,2,4-trioxanes” (2002).
Converted amounts (≈) assume the structure as drawn.

Assays:
Plasmodium falciparum = test: Antimalarial activity against Plasmodium falciparum NF54; assay type: functional
Mus musculus [1] = test: Total number of mice protected out of the 5 tested at a dose of 24 mg/kg/day (Observation till day 10 post-infection); assay type: functional
Mus musculus [2] = test: Total number of mice protected out of the 5 tested at a dose of 48 mg/kg/day (Observation till day 10 post-infection); assay type: functional
Mus musculus [3] = test: Total number of mice protected out of the 5 tested at a dose of 96 mg/kg/day (Observation till day 10 post-infection); assay type: functional
Mus musculus [4] = test: The compound was tested in vivo antimalarial response against multidrug-resistant Plasmodium yoelii in Swiss mice (Mus musculus) at a dose of 48 (mg/kg/day) after 7 days; assay type: functional
Mus musculus [5] = test: The compound was tested in vivo antimalarial response against multidrug-resistant Plasmodium yoelii in Swiss mice (Mus musculus) at a dose of 24 (mg/kg/day) after 4 days; assay type: functional
Mus musculus [6] = test: The compound was tested in vivo antimalarial response against multidrug-resistant Plasmodium yoelii in Swiss mice (Mus musculus) at a dose of 24 (mg/kg/day) after 7 days; assay type: functional
Mus musculus [7] = test: The compound was tested in vivo antimalarial response against multidrug-resistant Plasmodium yoelii in Swiss mice (Mus musculus) at a dose of 24 mg/kg/day after 10 days; assay type: functional
Mus musculus [8] = test: The compound was tested in vivo antimalarial response against multidrug-resistant Plasmodium yoelii in Swiss mice (Mus musculus) at a dose of 96 (mg/kg/day) after 10 days; assay type: functional, organism-based
Mus musculus [9] = test: The compound was tested in vivo antimalarial response against multidrug-resistant Plasmodium yoelii in Swiss mice (Mus musculus) at a dose of 96 (mg/kg/day) after 4 day; assay type: functional, organism-based
Mus musculus [10] = test: The compound was tested in vivo antimalarial response against multidrug-resistant Plasmodium yoelii in Swiss mice (Mus musculus) at a dose of 96 (mg/kg/day) after 7 days; assay type: functional, organism-based
Mus musculus [11] = test: The compound was tested in vivo antimalarial response against multidrug-resistant Plasmodium yoelii in Swiss mice (Mus musculus) at a dose of 48 (mg/kg/day) after 10 days; assay type: functional
Mus musculus [12] = test: (§1) The compound was tested in vivo antimalarial response against multidrug-resistant Plasmodium yoelii in Swiss mice (Mus musculus) at a dose of 48 (mg/kg/day) after 4 day; assay type: functional, organism-based
Mus musculus [13] = test: as §1; assay type: functional

**Q.** `C=C(CCCO)C1COC2(CCCCC2)OO1` (stereo unspecified) was tested. Which MIC (Plasmodium falciparum) did it give?
**A.** 1 µg/mL (≈ 4.13 µM)

**Q.** Which MIC (Plasmodium falciparum) does the source give for `C=C(C)C(O)CCC(=C)C1COC2(CCCC2)OO1` (stereo unspecified) here?
**A.** 0.125 µg/mL (≈ 0.466 µM)

**Q.** With `C=C(C)C(O)CCC(=C)C1COC(C)(C)OO1` (stereo unspecified) as the compound, how does the MIC (Plasmodium falciparum) read?
**A.** 0.5 µg/mL (≈ 2.06 µM)

**Q.** For `C=C(CCCO)C1COC2(CCCC2)OO1` (stereo unspecified), which MIC (Plasmodium falciparum) is on record?
**A.** 0.25 µg/mL (≈ 1.1 µM)

**Q.** `C=C(C)C(O)CCC(=C)C1COC2(OO1)C1CC3CC(C1)CC2C3` (stereo unspecified) was tested. Which “No. of mice protected” value (Mus musculus [1]) did it give?
**A.** 2

**Q.** And the “No. of mice protected” value (Mus musculus [2])?
**A.** 4

**Q.** What about the “No. of mice protected” value (Mus musculus [3]) of the same compound?
**A.** 5

**Q.** What about the Parasitemia (Mus musculus [4]) of the same compound?
**A.** 2.04%

**Q.** What about the Parasitemia (Mus musculus [5]) of the same compound?
**A.** 2.42%

**Q.** What about the Parasitemia (Mus musculus [6]) of the same compound?
**A.** 13.38%

**Q.** And the Parasitemia (Mus musculus [7])?
**A.** 28.4%

**Q.** What about the Parasitemia (Mus musculus [8]) of the same compound?
**A.** Nil

**Q.** And the Parasitemia (Mus musculus [9])?
**A.** Nil

**Q.** What about the Parasitemia (Mus musculus [10]) of the same compound?
**A.** Nil

**Q.** And the Parasitemia (Mus musculus [11])?
**A.** 10.5%

**Q.** What about the MIC (Plasmodium falciparum) of the same compound?
**A.** 0.031 µg/mL (≈ 0.0927 µM)

**Q.** What about the Parasitemia (Mus musculus [12]) of the same compound?
**A.** Nil

**Q.** With `C[C@@H]1CC[C@H]2[C@@H](C)C(=O)O[C@@H]3O[C@@]4(C)CC[C@@H]1[C@]32OO4` [ARTEMISININ] as the compound, how does the MIC (Plasmodium falciparum) read?
**A.** 0.031 µg/mL (≈ 0.11 µM)

**Q.** With `CCN(CC)CCCC(C)Nc1ccnc2cc(Cl)ccc12` (stereo unspecified) [CHLOROQUINE] as the compound, how does the “No. of mice protected” value (Mus musculus [2]) read?
**A.** 3

**Q.** What about the Parasitemia (Mus musculus [4]) of the same compound?
**A.** 17.6%

**Q.** And the Parasitemia (Mus musculus [11])?
**A.** 32.74%

**Q.** What about the Parasitemia (Mus musculus [13]) of the same compound?
**A.** 1.53%

**Q.** And the MIC (Plasmodium falciparum)?
**A.** 0.04 µg/mL (≈ 0.125 µM)

**Q.** For `C=C(CCCO)C1COC2(OO1)C1CC3CC(C1)CC2C3` (stereo unspecified), which MIC (Plasmodium falciparum) is on record?
**A.** 0.125 µg/mL (≈ 0.425 µM)

**Q.** How did the MIC (Plasmodium falciparum) turn out when `C=C(C)C(O)CCC(=C)C1COC2(CCCCC2)OO1` (stereo unspecified) was run?
**A.** 0.125 µg/mL (≈ 0.443 µM)

**Q.** For `C=C(CCCO)C1COC(C)(C)OO1` (stereo unspecified), which MIC (Plasmodium falciparum) is on record?
**A.** 1 µg/mL (≈ 4.94 µM)
